Consider 48 compounds from patent publication US12612392B2, “Compound, pharmaceutical compositions containing same, synthesis method therefor and use thereof” (SHENZHEN ZHONGGE BIOLOGICAL TECHNOLOGY CO., LTD., priority 2022, dated 2026).

As a reminder, the efflux ratio is a quotient of directional permeabilities that is used to spot active efflux. By EC50 is commonly meant the midpoint of the concentration-response curve. Read a low EC50 as a more potent agent.

Test system in one data set: not listed separately
The experiment in a line: Cell membrane permeability (A to B / B to A, efflux ratio). The class given is in vitro ADME.
Details: not given
How it is done:
The test compounds were diluted from 10 mM stock solutions to a concentration of 10 μM using the transport buffer (HBSS+BSA) and applied to the apical or basolateral side of the cell monolayer. After the incubation at 37° C., 5% CO2 and 95% relative humidity for 120 minutes, the permeability of the test compounds in the A to B direction or the B to A direction was tested in duplicate. In addition, the efflux ratio of each compound was determined. The test substances and reference substances were quantitatively analyzed by the LC-MS/MS method based on the analyte/IS peak area ratio.
Consider `C[C@H]1O[C@@H](O[C@H]2[C@@H](O)C[C@H](O[C@H]3[C@@H](O)C[C@H](O[C@H]4CC[C@@]5(C)[C@H](CC[C@@H]6[C@@H]5C[C@@H](O)[C@]5(C)[C@@H](C7=CC(=O)OC7)CC[C@]65O)C4)O[C@@H]3C)O[C@@H]2C)C[C@H](O)[C@@H]1O` [Digoxin, reference compound], for which the efflux ratio at 120 min, 10 µM is 44.1.

A further data set deals with HEK293T/17-ATF4 uORF-Luc-Puro monoclonal cells. The experiment in a line: Cell activity test: ATF4 luciferase reporter, thapsigargin-induced stress. Conditions: Homo sapiens, HEK-293T; ATF4 reporter expression, 50 nM thapsigargin, 6 hours. The class given is cell-based. An excerpt:
The ATF4 luciferase reporter plasmid consists of two parts, i.e., the 5′ untranslated region sequence of the ATF4 gene and the luciferase coding sequence. Specifically, the ATF4 5′ untranslated region sequence (NCBI database number BC022088.2) containing two upstream open reading frames (uORFs), and the firefly luciferase encoding gene were cloned into the pLVX-Puro vector (YouBio, VT1465). The lentivirus packaging plasmids were psPAX2 (YouBio, VT1444) and pMD2.G (YouBio, VT1443). HEK293T/17 cells were transfected with the above three plasmids simultaneously using X-tremeGENE 9 DNA transfection reagent, and after 48 hours, a culture medium containing lentivirus was collected. HEK293T/17 cells transduced with the virus were screened with 1 μg/mL puromycin, and then monoclonal cells were obtained by limiting dilution.
By using this cell line and the cold fluorescence readings, the translational regulation of ATF4 can be detected, and the activity of the eIF2B activator can be tested. The specific experimental process is as follows: 6000 HEK293T/17-ATF4 uORF-Luc-Puro monoclonal cells were plated in a 384-well plate and allowed to adhere overnight. The test compounds were dissolved in DMSO and added together with 50 nM thapsigargin to the cell culture medium and incubated for 6 hours, wherein the thapsigargin was used to cause cellular stress and upregulate the protein translation of ATF4. Six hours after the addition, the cells were lysed using the One-Glo Luciferase Assay Kit (Promega #E6120), and then the cold fluorescence values were read using the LUM program of the EnVision 2104 plate reader.
The ATF4 reporter expression % was calculated as follows:
[formula] • ave_vc: average signal value of negative control • ave_pc: average signal value of positive control • ave_sample: average signal value of sample
The dose-response curves were fitted, and the EC50 values were calculated.
The nonlinear regression log (inhibitor) vs. response—variable slope (four parameters) method of GraphPad 9 software was used to fit the corresponding relationship between the ATF4 reporter expression % and the compound concentration.
X-axis: log value of compound concentration; Y-axis: ATF4 reporter expression %; Top: evaluation of upper asymptote of curve; Bottom: evaluation of lower asymptote of curve; Hillslope: slope of the fitted curve.
`O=C(COc1ccc(F)cc1F)N[C@H]1CC[C@H](c2nnc(N3CC(OC(F)(F)F)C3)o2)CC1` [Compound 30] gave an EC50 greater than 100 nM.

Consider `O=C(COc1cccc(Cl)c1Cl)N[C@H]1CC[C@H](c2nnc(N3CC(OC(F)(F)F)C3)o2)CC1` [Compound 32], for which the EC50 was greater than 100 nM.

`O=C(CO[C@H]1CC[C@H](c2nnc(N3CC(OC(F)(F)F)C3)o2)CC1)Nc1ccc(Cl)c(F)c1` [Compound 90] had an EC50 of 1 to 10 nM.

`O=C(COc1ccc(Cl)c(Br)c1)N[C@H]1CC[C@H](c2nnc(N3CC(OC(F)(F)F)C3)o2)CC1` [Compound 26] had an EC50 of less than 1 nM.

As for `Nc1cc(Cl)ccc1OCC(=O)N[C@H]1CC[C@H](c2nnc(N3CC(OC(F)(F)F)C3)o2)CC1` [Compound 52], the EC50 is greater than 100 nM.

On to `O=C(COc1ccc(F)c(F)c1)N[C@H]1CC[C@H](c2nnc(N3CC(OC(F)(F)F)C3)o2)CC1` [Compound 34], for which the concentration giving a half-maximal response (EC50) is 1 to 10 nM.

`O=C(COc1cccc(F)c1)N[C@H]1CC[C@H](c2nnc(N3CC(OC(F)(F)F)C3)o2)CC1` [Compound 24]: the EC50 is 10 to 100 nM.

With `O=C(COc1ccc(Cl)cc1)N[C@H]1CC[C@H](c2nnc(N3CC(OC(F)(F)F)C3)o2)CC1` [Compound 15], the EC50 is less than 1 nM.

`O=C(COc1ccc(Cl)c(F)c1)N[C@@H]1CC[C@@H](c2nnc(N3CC(OC(F)(F)F)C3)o2)OC1` [Compound 16] gave an EC50 of 1 to 10 nM.

Take `Fc1cc(OCC(=S)N[C@H]2CC[C@H](c3nnc(N4CC(OC(F)(F)F)C4)o3)CC2)ccc1Cl` [Compound 12]: the EC50 lay within 1 to 10 nM.

As to `O=C(COc1cc(F)c(Cl)cc1F)N[C@H]1CC[C@H](c2nnc(N3CC(OC(F)(F)F)C3)o2)CC1` [Compound 48], the concentration giving a half-maximal response (EC50) was 1 to 10 nM.

In turn, `O=C(N[C@H]1CC[C@H](c2nnc(N3CC(OC(F)(F)F)C3)o2)CC1)c1cc(Cl)c[nH]1` [Compound 43] displayed an EC50 of 10 to 100 nM.

`O=C(COc1ncc(C(F)(F)F)s1)N[C@H]1CC[C@H](c2nnc(N3CC(OC(F)(F)F)C3)o2)CC1` [Compound 53] returned an EC50 greater than 100 nM.

The compound `O=C(N[C@H]1CC[C@H](c2nnc(N3CC(OC(F)(F)F)C3)o2)CC1)c1ccc2c(c1)CCCO2` [Compound 46] registered an EC50 greater than 100 nM.

`O=C(COc1ccc(Cl)c(F)c1)NC12CCC(c3nnc(N4CC5(C4)CC(F)(F)C5)o3)(CC1)CC2` [Compound 8] had an EC50 of 10 to 100 nM.

`O=C(COc1ccccc1F)N[C@H]1CC[C@H](c2nnc(N3CC(OC(F)(F)F)C3)o2)CC1` [Compound 29]: the EC50 is greater than 100 nM.

Turning to `O=C(CO[C@H]1C[C@@H](OC(F)(F)F)C1)N[C@H]1CC[C@H](c2nnc(N3CC(OC(F)(F)F)C3)o2)CC1` [Compound 17], the EC50 is 10 to 100 nM.

`CN(c1nnc([C@H]2CC[C@H](NC(=O)COc3ccc(Cl)c(F)c3)CC2)o1)C1CC(C(F)(F)F)C1` (stereo partly drawn) [Compound 14] had an EC50 of 10 to 100 nM.

With `O=C(COc1ccc(Cl)c(F)c1)NC12CCC(c3nnc(N4CC(OC(F)(F)F)C4)o3)(CC1)CC2` [Compound 3], the EC50 was 1 to 10 nM.

`COC1CN(c2nnc(C3CCC(NC(=O)COc4ccc(Cl)c(F)c4)CC3)o2)C1` (stereo not drawn) [Compound 2]: the EC50 is 10 to 100 nM.

In turn, `O=C(COc1ccc(F)cc1Cl)N[C@H]1CC[C@H](c2nnc(N3CC(OC(F)(F)F)C3)o2)CC1` [Compound 31] had an EC50 greater than 100 nM.

On to `O=C(COc1cc(F)c(Cl)c(F)c1)N[C@H]1CC[C@H](c2nnc(N3CC(OC(F)(F)F)C3)o2)CC1` [Compound 47], for which the EC50 is 1 to 10 nM.

On to `O=C(COc1ccc(Cl)c(F)c1)N[C@H]1CC[C@H](c2nnc(N3CC(OC(F)F)C3)o2)CC1` [Compound 19], for which the EC50 was in the range of 1 to 10 nM.

Consider `O=C(COc1ccc(Cl)c(F)c1F)N[C@H]1CC[C@H](c2nnc(N3CC(OC(F)(F)F)C3)o2)CC1` [Compound 50], for which the EC50 lay within 1 to 10 nM.

For `O=C(COc1ccc(Cl)cc1Cl)N[C@H]1CC[C@H](c2nnc(N3CC(OC(F)(F)F)C3)o2)CC1` [Compound 27], the EC50 was 10 to 100 nM.

`O=C(COc1ccc(Cl)c(F)c1)NC12CCC(c3nnc(N4CC(OC(F)(F)F)C4)o3)(CC1)CC2O` (stereo not drawn) [Compound 4] showed an EC50 of less than 1 nM.

Compound `O=C(COc1cccc(Cl)c1)N[C@H]1CC[C@H](c2nnc(N3CC(OC(F)(F)F)C3)o2)CC1` [Compound 23] came in with an EC50 of 10 to 100 nM.

`O=C(COc1ccc(Cl)c(F)c1)NC12CCC(c3nnc(N4CC(OC(F)(F)C(F)(F)F)C4)o3)(CC1)CC2` [Compound 10] returned an EC50 of 1 to 10 nM.

Turning to `O=C(COc1ccc(Cl)cc1F)N[C@H]1CC[C@H](c2nnc(N3CC(OC(F)(F)F)C3)o2)CC1` [Compound 33], the EC50 lay within 1 to 10 nM.

With `O=C(COc1ccc(Cl)cn1)N[C@H]1CC[C@H](c2nnc(N3CC(OC(F)(F)F)C3)o2)CC1` [Compound 18], the concentration giving a half-maximal response (EC50) lay in the range of 10 to 100 nM.

Consider `C[C@@H]1[C@@H](OC(F)(F)F)CN1c1nnc([C@H]2CC[C@H](NC(=O)COc3ccc(Cl)c(F)c3)CC2)o1` [Compound 51-1], for which the EC50 fell in the range of 10 to 100 nM.

`O=C(COc1cc(F)c(Cl)cc1Cl)N[C@H]1CC[C@H](c2nnc(N3CC(OC(F)(F)F)C3)o2)CC1` [Compound 49]: the EC50 is greater than 100 nM.

On to `O=C(COc1ccc(Cl)c(F)c1)N[C@H]1CC[C@H](c2nnc(NC3CC(C(F)(F)F)C3)o2)CC1` (stereo partly drawn) [Compound 11], for which the EC50 lay within 10 to 100 nM.

In turn, `O=C(COc1ccccc1Cl)N[C@H]1CC[C@H](c2nnc(N3CC(OC(F)(F)F)C3)o2)CC1` [Compound 22] gave a half-maximal effective concentration (EC50) greater than 100 nM.

In turn, `O=C(N[C@H]1CC[C@H](c2nnc(N3CC(OC(F)(F)F)C3)o2)CC1)c1cnc(C(F)F)cn1` [Compound 45] gave an EC50 greater than 100 nM.

`O=C(COc1ccc(F)c(Cl)c1)N[C@H]1CC[C@H](c2nnc(N3CC(OC(F)(F)F)C3)o2)CC1` [Compound 25]: the EC50 is 1 to 10 nM.

For the compound `O=C(COc1ccc(Cl)c(F)c1)NN1CCC(c2nnc(N3CC(OC(F)(F)F)C3)o2)CC1` [Compound 7], the EC50 was less than 1 nM.

As to `Cc1csc(C(=O)N[C@H]2CC[C@H](c3nnc(N4CC(OC(F)(F)F)C4)o3)CC2)n1` [Compound 42], the EC50 was greater than 100 nM.

Compound `O=C(N[C@H]1CC[C@H](c2nnc(N3CC(OC(F)(F)F)C3)o2)CC1)c1nc(Cl)c[nH]1` [Compound 41] came in with an EC50 greater than 100 nM.

For the compound `O=C(COc1ccc(Cl)c(F)c1)N[C@H]1CC[C@H](c2nnc(N3CC(OC(F)(F)F)C3)o2)C[C@H]1O` [Compound 86], the EC50 was 1 to 10 nM.

`O=C(N[C@H]1CC[C@H](c2nnc(N3CC(OC(F)(F)F)C3)o2)CC1)c1ccc2cc(Cl)ccc2n1` [Compound 44] came in with an EC50 of 1 to 10 nM.

In turn, `CP(C)(=O)C1CN(c2nnc(C34CCC(NC(=O)COc5ccc(Cl)c(F)c5)(CC3)CC4)o2)C1` [Compound 9] had an EC50 greater than 100 nM.

In turn, `C[C@@H]1[C@H](OC(F)(F)F)CN1c1nnc([C@H]2CC[C@H](NC(=O)COc3ccc(Cl)c(F)c3)CC2)o1` [Compound 51-2] gave an EC50 greater than 100 nM.

With `O=C(COc1ncc(Cl)cn1)N[C@H]1CC[C@H](c2nnc(N3CC(OC(F)(F)F)C3)o2)CC1` [Compound 35], the EC50 is greater than 100 nM.

As to `O=C(COc1ccc(Cl)c(Cl)c1)N[C@H]1CC[C@H](c2nnc(N3CC(OC(F)(F)F)C3)o2)CC1` [Compound 28], the EC50 was less than 1 nM.

Take `O=C(COc1ccc(F)cc1)N[C@H]1CC[C@H](c2nnc(N3CC(OC(F)(F)F)C3)o2)CC1` [Compound 21]: the EC50 fell in the range of 10 to 100 nM.

Compound `COC1CN(c2nnc(C3CCN(NC(=O)COc4ccc(Cl)c(F)c4)CC3)o2)C1` [Compound 1] showed an EC50 of 10 to 100 nM.
